Data reported in patent US20100105766A1, “COMPOSITION FOR INHIBITION OR PREVENTION OF BONE DENSITY REDUCTION” (Kirin Beer Kabushiki Kaisha, priority 2003, published 2010).
“Also recorded” adds a separate entry of the source.

Legend:
[1] = tested on: estrogen-responsive human breast cancer-derived MCF-7 cells; experiment: Estrogen activity measured by cell growth of MCF-7 cells (Cell Counting Kit); assay type: cell-based; details: for estrogen activity compared with the activity of estradiol: MCF-7 cell growth, relative to 17β-estradiol; for estrogen activity (cell growth of MCF-7 cells as index): 7 days of culture, absorbance at 450 nm
Procedure: The estrogen activity of the test compound was measured using as an index cell growth of estrogen-responsive human breast cancer-derived MCF-7 cells. The cell line used is one that expressed an estrogen receptor and enhanced cell growth in the presence of an estrogen-like substance. Therefore, the estrogen activity was measured by measuring the cell growth of the cell line with Cell Counting Kit (manufactured by DOJINDO LABORATORIES).
The measurement of cell growth of MCF-7 cells with the Cell Counting Kit was carried out by measuring the absorbance at 450 nm of formazane produced from a WST-1 reagent ([…], monosodium salt) incorporated in cells with a microplate reader (SOFTmax (manufactured by Molecular Devices Corporation)).
More specifically, MCF-7 cells were precultured for 3 days in a DMEM medium containing 10% of fetal calf serum (manufactured by Gibco), which had been treated using Dextran-Coated Charcoal (manufactured by Sigma) for adsorbing and removing endogenous steroids, and further containing penicillin and streptomycin (each 10000 units, 1 mg/ml, manufactured by Gibco), 0.1 mM nonessential amino acid (manufactured by Gibco), 1 mM sodium pyruvate (manufactured by Gibco), and 1 μg/ml insulin (human recombinant 27.5 USP unit/mg: (manufactured by Sigma)). A cell suspension having an MCF-7 cell concentration of 8×10^4 cells/ml was prepared and was seeded on a 96 well plate in an amount of 100 μl/well. One day after the initiation of the culture, the medium in the wells was replaced by a medium containing a test compound (0.1% (v/v)) dissolved in dimethylsulfoxide, and culture was continued. On the fourth day of the culture, the medium in the wells was again replaced by a fresh medium containing the test compound. On the seventh day of the culture, the cell growth was measured with Cell Counting Kit.
For purified isoxanthohumol and chemically synthesized 8-prenylnaringenin, the estrogen activity was measured in the same manner as in test 1, except that the concentrations of the test compound in the medium for MCF-7 cell culture were set as follows.
Isoxanthohumol was added so that the concentration of isoxanthohumol in the medium was 1.0×10^−5, 1.0×10^−6, 1.0×10^−7, 1.0×10^−8, 1.0×10^−9, and 1.0×10^−10 mol/L.

[2] = tested on: ovariectomized female SD rats; experiment: Amelioration of bone mineral density reduction after removal of ovaries (pQCT, femur), test 4; assay type: in vivo, rat; details: oral 10 ml/kg once a day for 28 days, concentrations equal to those in beer (isoxanthohumol also 5-fold and 20-fold)
Procedure: Ovaries on both sides of 9-week old female SD rats were removed, and, from the next day of the ovary removal, the test compound was orally administered into the stomach through a stomach tube (liquid amount 10 ml/kg) once a day for 28 days.
For the control group and sham operation group, the 0.8% aqueous ethanol solution was orally administered in the same manner as in the test compound administration group. 17β-Estradiol was provided as a positive control and was subcutaneously administered at a dose of 4 μg/kg/day.
Beer (domestically produced pilsner beer) contained 2.1 mg/L isoxanthohumol and 43 μg/L 8-prenylnaringenin. Here this beer was once lyophilized and was then dissolved in water to remove ethanol to give a test compound which was then used in the test.
Isoxanthohumol was dissolved in a 0.8% aqueous ethanol solution so that, as compared with the concentration of isoxanthohumol contained in beer, the resultant solutions had 1-fold, 5-fold and 20-fold isoxanthohumol concentrations. […]
The bone mineral density was measured by dissecting the femur of rats and identifying the cancellous bone mineral density at the distal metaphysis bone end with a pQCT (Peripheral Quantitative computed tomography) bone mineral density measuring apparatus (XCT-960A, manufactured by Norland Stratec).

young Wistar female rats = experiment: In vivo estrogen activity in immature rats (uterine weight), test 3-a; set-up: species or system rat; details: oral 1, 5 or 25 mg/kg/day once a day for 3 days
Procedure: In vivo estrogen activity was evaluated using young Wistar female rats. The rats used were provided as follows. At the outset, 20-day old Wistar female rats (available from Charles River Japan, Inc.) were selected so that the difference in body weight among the animals was within ±10% of the average body weight. Thereafter, the animals were randomly grouped so that each group consisted of 6 animals. The animals were reared with free feeding of water and AlN-76A (manufactured by CLEA JAPAN INC.).
After preliminary rearing for one day, isoxanthohumol or 8-prenylnaringenin was forcibly orally administered into the stomach through a stomach tube at a dose of 1, 5, or 25 mg/kg/day (liquid amount 10 ml/kg) once a day for 3 days. For the control group, a solvent (peanut oil) was orally administered in the same manner as described, and for the positive control, 17β-estradiol was provided and was orally administered at a dose of 400 μg/kg/day in the same manner as described above. About 24 hr after the final administration, the uterine was harvested from the rats, and the weight of the uterine was measured to measure the in vivo estrogen activity.

[3] = tested on: ovariectomized female SD rats; experiment: In vivo estrogen activity in ovariectomized rats (uterine weight), test 3-b; set-up: species or system rat
Procedure: Ovaries on both sides of 9-week old female SD rats (available from Charles River Japan, Inc.) were removed, and the rats were randomly grouped so that each group consisted of 6 animals. The animals were reared with free feeding of water and AlN-76A (manufactured by CLEA JAPAN INC.). From the next day of the operation, the test compound was forcibly orally administered into the stomach through a stomach tube (liquid amount 10 ml/kg) once a day for 28 days.
Isoxanthohumol was dissolved in a 0.8% aqueous ethanol solution so that, as compared with the concentration of isoxanthohumol contained in beer, the resultant solutions had 1-fold, 5-fold and 20-fold isoxanthohumol concentrations. For the control group and sham operation group, the 0.8% aqueous ethanol solution was orally administered in the same manner as in the test compound administration group. 17β-Estradiol was provided as a positive control and was subcutaneously administered at a dose of 2 μg/kg/day.

bone resorption = details: in vitro experiment, reported in the literature; cited from earlier work

Row | Molecule | estrogen activity compared with the activity of estradiol [1] | estrogen activity (cell growth of MCF-7 cells as index) [1] | amelioration of cancellous bone mineral density reduction in the femur [2] | in vivo estrogen activity (uterine weight increasing activity) (young Wistar female rats) | dose without uterine weight increasing activity relative to the dose that exhibited bone mineral density reduction inhibitory activity [3] [times] | in vivo estrogen activity (recovery of uterine weight) ([3]; oral 10 ml/kg once a day for 28 days, 1-fold, 5-fold and 20-fold the concentration in beer) | bone resorption inhibitory effect (bone resorption)
1 | CC(C)=CCc1c(O)cc(O)c2c1O[C@H](c1ccc(O)cc1)CC2=O [8-prenylnaringenin, reference compound] | 10^−2 time | had estrogen activity | This amelioration was not observed | – | – | – | –
2 | COc1cc(O)c(CC=C(C)C)c2c1C(=O)CC(c1ccc(O)cc1)O2 (stereo not drawn) [isoxanthohumol] | about 10^−5 time | had estrogen activity; also recorded: has estrogen activity | confirmed to be effective; also recorded: better than the effect of xanthohumol; also recorded: significantly ameliorated; also recorded: significantly improved a bone mineral density reduction | did not have in vivo estrogen activity for immature rats or had only a very low level of activity; also recorded: did not exhibit uterine weight increasing activity; also recorded: uterine hypertrophy action was not observed | 20 | significant recovery of the weight of the uterine was not observed; also recorded: did not exhibit uterine weight increasing activity | –
3 | COc1cc(O)c(CC=C(C)C)c(O)c1C(=O)/C=C/c1ccc(O)cc1 [xanthohumol, reference compound] | – | – | any activity as in isoxanthohumol was not observed | – | – | – | proven to have bone resorption inhibitory effect
4 | Humulons | – | – | – | – | – | – | proven to have bone resorption inhibitory effect
